Measured values reported in patent US20220289679A1, “HETEROCYCLIC COMPOUND” (Takeda Pharmaceutical Company Limited, priority 2019, published 2022).

What follows are molecules tested against T1, human GCS (glucosylceramide synthase) (Homo sapiens, UniProt Q16739) (assay: Glucosylceramide Synthase (GCS) Assay). Conditions: test compound 10 μM; microsome fraction of Expi293F cells expressing human GCS; 1.7 μM UDP-glucose, 3 μM C8 ceramide; room temperature 60 min; C8 glucosylceramide by Rapidfire MS/MS; read-out: GCS enzyme inhibitory rate at 10 μM (%).
T1 construct: made in house; host or cells: Expi293F cells (transient expression; microsome fraction)
T1 sequence (Q16739 1-394): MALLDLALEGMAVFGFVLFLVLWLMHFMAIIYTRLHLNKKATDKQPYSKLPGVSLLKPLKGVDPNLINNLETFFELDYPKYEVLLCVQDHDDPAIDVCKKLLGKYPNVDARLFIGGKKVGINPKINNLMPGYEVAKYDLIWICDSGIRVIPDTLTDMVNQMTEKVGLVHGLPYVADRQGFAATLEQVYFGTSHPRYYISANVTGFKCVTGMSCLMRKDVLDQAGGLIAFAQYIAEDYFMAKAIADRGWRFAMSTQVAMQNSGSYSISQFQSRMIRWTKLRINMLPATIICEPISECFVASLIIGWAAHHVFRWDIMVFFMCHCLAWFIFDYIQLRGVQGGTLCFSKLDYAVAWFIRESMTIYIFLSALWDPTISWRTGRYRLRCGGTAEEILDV
Format: biochemical
Outline: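 Enzyme source was a microsome fraction from Expi293F cells transiently expressing human GCS. Reaction ran 60 min at room temperature in 20 mM Tris pH 7.5 with 1.7 μM UDP-glucose (Km) and 3 μM liposomal C8 ceramide, compound at 10 μM final. C8 glucosylceramide quantified by RapidFire MS/MS; inhibition scaled between enzyme-free and DMSO controls.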

| inhibition at 10 µM [%] | SMILES |
| --- | --- |
| 93 | O=C(Nc1ccc(Oc2ccccc2)cc1)c1cccn(-c2ccccc2N2CCOCC2)c1=O [Example 4, 1-[2-(morpholin-4-yl)phenyl]-2-oxo-N-(4-phenoxyphenyl)-1,2-dihydropyridine-3-carboxamide] |
| 98 | CC(C)(O)c1ccc(NC(=O)c2cccn(-c3ccc(F)cc3OCC(F)(F)F)c2=O)cc1F [Example 83, N-[3-fluoro-4-(2-hydroxypropan-2-yl)phenyl]-1-[4-fluoro-2-(2,2,2-trifluoroethoxy)phenyl]-2-oxo-1,2-dihydropyridine-3-carboxamide] |
| 90 | CC(C)(O)c1ccc(NC(=O)c2cccn(-c3ccnnc3OCC(F)(F)F)c2=O)cc1 [Example 90, N-[4-(2-hydroxypropan-2-yl)phenyl]-2-oxo-1-[3-(2,2,2-trifluoroethoxy)pyridazin-4-yl]-1,2-dihydropyridine-3-carboxamide] |
| 88 | N#Cc1ccc(NC(=O)c2cccn(-c3ccc(F)cc3OCC(F)(F)F)c2=O)cc1 [Example 41, N-(4-cyanophenyl)-1-[4-fluoro-2-(2,2,2-trifluoroethoxy)phenyl]-2-oxo-1,2-dihydropyridine-3-carboxamide] |
| 100 | CC(C)(O)c1ccc(NC(=O)c2ccnn(-c3ccccc3OCC(F)(F)F)c2=O)cc1 [Example 127, N-[4-(2-hydroxypropan-2-yl)phenyl]-3-oxo-2-[2-(2,2,2-trifluoroethoxy)phenyl]-2,3-dihydropyridazine-4-carboxamide] |
| 98 | CC(C)(O)c1ccc(NC(=O)c2cccn(-c3ccc(F)cc3OCC(F)F)c2=O)cc1 [Example 102, 1-[2-(2,2-difluoroethoxy)-4-fluorophenyl]-N-[4-(2-hydroxypropan-2-yl)phenyl]-2-oxo-1,2-dihydropyridine-3-carboxamide] |
| 100 | CC(C)(O)c1ccc(NC(=O)c2ccnn(-c3ccccc3OCC(F)F)c2=O)c(F)c1 [Example 147, 2-[2-(2,2-difluoroethoxy)phenyl]-N-[2-fluoro-4-(2-hydroxypropan-2-yl)phenyl]-3-oxo-2,3-dihydropyridazine-4-carboxamide] |
| 100 | Cn1cc(C(=O)Nc2ccc(C(C)(C)C#N)cc2)c(=O)c(-c2ccccc2OCC(F)(F)F)n1 [Example 190, N-[4-(2-cyanopropan-2-yl)phenyl]-2-methyl-5-oxo-6-[2-(2,2,2-trifluoroethoxy)phenyl]-2,5-dihydropyridazine-4-carboxamide] |
| 100 | CC(C)(O)c1ccc(NC(=O)c2cn(C(F)F)nc(-c3ccccc3OCC(F)F)c2=O)cc1 [Example 161, 6-[2-(2,2-difluoroethoxy)phenyl]-2-(difluoromethyl)-N-[4-(2-hydroxypropan-2-yl)phenyl]-5-oxo-2,5-dihydropyridazine-4-carboxamide] |
| 98 | CC(C)(O)c1ccc(NC(=O)c2cncn(-c3ccc(F)cc3OCC(F)(F)F)c2=O)cc1 [Example 98, 1-[4-fluoro-2-(2,2,2-trifluoroethoxy)phenyl]-N-[4-(2-hydroxypropan-2-yl)phenyl]-6-oxo-1,6-dihydropyrimidine-5-carboxamide] |
| 97 | O=C(Nc1ccc(C(O)(C(F)F)C(F)F)nc1)c1cccn(-c2cc(F)c(F)cc2OCC(F)(F)F)c1=O [Example 118, 1-[4,5-difluoro-2-(2,2,2-trifluoroethoxy)phenyl]-2-oxo-N-[6-(1,1,3,3-tetrafluoro-2-hydroxypropan-2-yl)pyridin-3-yl]-1,2-dihydropyridine-3-carboxamide] |
| 97 | CCOC(=O)c1ccc(NC(=O)c2cc(C)nn(-c3ccccc3OCC(F)F)c2=O)cc1 [Example 194, ethyl 4-({2-[2-(2,2-difluoroethoxy)phenyl]-6-methyl-3-oxo-2,3-dihydropyridazine-4-carbonyl}amino)benzoate] |
| 83 | Cc1cc(C(=O)Nc2ccc(C(C)(C)O)cc2C#N)c(=O)n(-c2ccccc2OCC(F)F)n1 [Example 154, N-[2-cyano-4-(2-hydroxypropan-2-yl)phenyl]-2-[2-(2,2-difluoroethoxy)phenyl]-6-methyl-3-oxo-2,3-dihydropyridazine-4-carboxamide] |
